Laboratory results taken from patent EP0641792A1, “1,2-Dithiole derivatives and therapeutic agents containing them” (MITSUI TOATSU CHEMICALS, Inc., priority 1993, dated 1995).

Experiments:
[1] = test system: Male SD rats; assay: Inhibitory action for disappearance of enzyme in myocardial cells after ischemia and reperfusion (Evaluation Example 6); assay type: in vivo, rat; settings: for Mortality (%) / CPK activity (U/mg protein) (Non-ischemia territory)-(ischemia and reperfusion territory): 1.0 mg/kg intravenously, ligation 20 minutes, reperfusion 2 hours; for CPK activity (U/mg protein) (Non-ischemia territory)-(ischemia and reperfusion territory): left ventricle, average value ± standard error
Protocol: Male SD rats of 7-12 week age were anesthetized with pentobarbital and subjected to thoracotomy under artificial respiration. The left anterior descending coronary artery of each rat was ligated for 20 minutes and then subjected to reperfusion for 2 hours. Then, the heart of each rat was enucleated and the left ventricle was separated. The left ventricle was homogenized to measure the activity of creatine phosphokinase (CPK) remaining in the ventricle. Each test compound was intravenously administered 5 minutes before the obstruction of coronary artery. For comparison, the same evaluation was conducted also on the 4-(4-methoxy-3-sulfophenyl)-5-phenyl-3H-1,2-dithiole-3-thione sodium salt described in Bull. […] Chim. […] In Table 18 are shown the differences in CPK activity between non-ischemia territory and ischemia and reperfusion territory of left ventricle, of test compounds and control.
In Table 18, CPK activity indicates (average value ± standard error), and n indicates the number of tested rats.

[2] = Solubility in water (Test Example 1); assay type: physicochemical; settings: 5% aqueous glucose solution, saline or isotonic
Protocol: (§1) Solubility in 5% aqueous glucose solution was measured.

[3] = test system: peroxylipid; assay: Inhibitory action for formation of peroxylipid (Evaluation Example 1; MDA, thiobarbituric acid method); assay type: biochemical; settings: rat brain homogenate, 37°C for 60 minutes; test compound 10⁻⁴ M; n=2
Protocol: (§2) Male SD rats of 7-10 week age were anesthetized with pentobarbital and then subjected to dehematization. Thereafter, their brains were enucleated. The brain tissues were homogenized with a phosphate buffer solution with ice-cooling. Each of the 5% homogenates was incubated at 37°C for 60 minutes to form malondialdehyde (MDA). The amount of MDA was determined by measuring the absorbance at 535 nm according to the thiobarbituric acid method. Using this MDA amount (a) and a control value (b) (a MDA amount when no test compound was added), the inhibition (%) for formation of peroxylipid, of test compound was calculated from the following formula. Inhibition (%) for formation of peroxylipid = [(b-a)/b]x100 [formula] Each test compound was added to the homogenate before the incubation.
(§3) Incidentally, the concentration of each test compound was 10⁻⁴ M, and the number of rats used for each test compound was n=2.

[4] = test system: Male SD rats; assay: Inhibitory action for reperfusion arrhythmia (Evaluation Example 2; coronary artery ligation 5 minutes, reperfusion 10 minutes); assay type: in vivo, rat; settings: 1.0 mg/kg intravenously 5 minutes before obstruction of coronary artery
Protocol: (§4) Male SD rats of 8-12 week age were anesthetized with pentobarbital and subjected to thoracotomy under artificial respiration. The left anterior descending coronary artery of each rat was ligated for 5 minutes and then subjected to reperfusion for 10 minutes. An electrocardiograph in standard bipolar limb lead II was recorded for each rat to examine the occurrence of ventricular arrhythmia. A test compound was intravenously administered 5 minutes before the obstruction of coronary artery. For comparison, the same evaluation was conducted also on the 5-(4-methoxy-3-sulfophenyl)-3H-1,2-dithiole-3-thione sodium salt described in Eur. J. Med. Chem. 15, 405 (1980). [drawing 93]

[5] = test system: Male SD rats; assay: Inhibitory action for disappearance of enzyme in myocardial cells after ischemia and reperfusion (Evaluation Example 3); assay type: in vivo, rat; settings: 1.0 mg/kg intravenously; ligation 20 minutes, reperfusion 2 hours; left ventricle; average value ± standard error
Protocol: Male SD rats of 7-12 week age were anesthetized with pentobarbital and subjected to thoracotomy under artificial respiration. The left anterior descending coronary artery of each rat was ligated for 20 minutes and then subjected to reperfusion for 2 hours. Then, the heart of each rat was enucleated and the left ventricle was separated. The left ventricle was homogenized to measure the activity of creatine phosphokinase (CPK) remaining in the ventricle. A test compound was intravenously administered 5 minutes before the obstruction of coronary artery. In Table 15 are shown the differences in CPK activity between non-ischemia territory and ischemia and reperfusion territory of left ventricle, of test compound and control.
In Table 15, CPK activity indicates (average value ± standard error), and n indicates the number of tested rats.

[6] = test system: Male SD rats; assay: Inhibitory action of reperfusion arrhythmia (Evaluation Example 5; coronary artery ligation 5 minutes, reperfusion 10 minutes); assay type: in vivo, rat; settings: 1.0 mg/kg intravenously 5 minutes before obstruction of coronary artery
Protocol: as §4, with “arrhythmia. Each” for “arrhythmia. A”, “[drawing 95]” for “[drawing 93]”

[7] = test system: peroxylipid; assay: Inhibitory action for formation of peroxylipid (Evaluation Example 4; MDA, thiobarbituric acid method); assay type: biochemical; settings: rat brain homogenate, 37°C for 60 minutes; test compound 10⁻⁴ M; n=2
Protocol: as §2, §3

[8] = Solubility in water (Test Example 2); assay type: physicochemical; settings: 5% aqueous glucose solution, saline or isotonic
Protocol: as §1

Structure (SMILES) | solubility [2] | Inhibition (%) [3] | Mortality (%) [6] | VF incidence (VF rats)/(tested rats) (%) [6] | Mortality (%) [1] | CPK activity (U/mg protein) (Non-ischemia territory)-(ischemia and reperfusion territory) [1] | Inhibition (%) [7] | further results
COc1ccc(-c2c(-c3ccccc3)ssc2=S)cc1S(=O)(=O)[O-].[Na+] [Compound in literature, 4-(4-methoxy-3-sulfophenyl)-5-phenyl-3H-1,2-dithiole-3-thione sodium salt, reference compound] |  |  |  |  |  |  |  | effect on disappearance of creatine phosphokinase from myocardial cells and on rat mortality ([1]; result in words, versus control): no significant effect
COc1cc2c(cc1S(=O)(=O)[O-])CCc1c-2ssc1=S.[Na+] [Production Example 3, 4,5-dihydro-8-methoxy-7-sulfo-3H-naphtho-[1,2-c]-1,2-dithiole-3-thione sodium salt] | ≥ 10000 µg/mL | 100% |  |  |  |  |  | 
COc1cc2c(cc1S(=O)(=O)[O-])-c1ssc(=S)c1CC2.[Na+] [Production Example 4, 4,5-dihydro-7-methoxy-8-sulfo-3H-naphtho[1,2-c]-1,2-dithiole-3-thione sodium salt] | ≥ 10000 µg/mL | 100% |  |  |  |  |  | Mortality (%) [4]: 2/5 (40.0) %; VF incidence (VF rats)/(tested rats) (%) [4]: 2/5 (40.0) %; CPK activity (U/mg protein) (Non-ischemia territory)-(ischemia and reperfusion territory) [5]: 1.36 ± 0.34 (n=7) U/mg protein
CCOc1cc2c(cc1S(=O)(=O)[O-])-c1ssc(=S)c1CC2.[Na+] [Production Example 5, 4,5-dihydro-7-ethoxy-8-sulfo-3H-naphtho-[1,2-c]-1,2-dithiol-3-thione sodium salt] | ≥ 10000 µg/mL | 100% |  |  |  |  |  | 
COc1cc2c(cc1S(=O)(=O)[O-])OCc1c-2ssc1=S.[Na+] [Production Example 12, 8-methoxy-7-sulfo-3H,4H-benzopyrano-[4,3-c]-1,2-dithiole-3-thione sodium salt] | ≥ 10000 µg/mL | 100% |  |  |  |  |  | 
O=S(=O)([O-])c1ccc2c(c1)-c1ssc(=S)c1CO2.[Na+] [Production Example 13, 8-sulfo-3H,4H-benzopyrano[4,3-c]-1,2-dithiole-3-thione sodium salt] | ≥ 10000 µg/mL | 100% |  |  |  |  |  | 
CCCCCCc1ssc(=S)c1Cc1ccc(OC)c(S(=O)(=O)[O-])c1.[Na+] [Production Example 26, 5-hexyl-4-(4-methoxy-3-sulfobenzyl)-3H-1,2-dithiole-3-thione sodium salt] |  |  | 2/6 (33.3) % | 3/6 (50.0) % | 33.3% | 0.70 ± 0.23 (n=9) U/mg protein | 100% | solubility [8]: ≥ 10000 µg/mL
COc1ccc(-c2c(-c3ccc(C)cc3)ssc2=S)cc1S(=O)(=O)[O-].[Na+] [Production Example 34, 4-(4-methoxy-3-sulfophenyl)-5-(p-tolyl)-3H-1,2-dithiole-3-thione sodium salt] |  |  | 2/7 (28.6) % | 3/7 (42.9) % | 40.0% | 0.81 ± 0.43 (n=10) U/mg protein | 100% | solubility [8]: ≥ 10000 µg/mL
O=S(=O)([O-])c1ccc(Cc2c(-c3ccccc3)ssc2=S)cc1.[Na+] [Production Example 39, 5-phenyl-4-(4-sulfobenzyl)-3H-1,2-dithiole-3-thione sodium salt] |  |  | 0/4 (0.0) % | 1/4 (25.0) % | 12.5% | 0.84 ± 0.18 (n=8) U/mg protein | 100% | 
